Results as given in ChEMBL document CHEMBL6087402, “Design, synthesis, and in vitro and in vivo biological evaluation of dihydroartemisinin derivatives as potent anti-cancer agents with ferroptosis-inducing and apoptosis-activating properties” (Eur J Med Chem, 2025).
Calls of active or inactive are those of the source. The rule behind the calls is not given here.

Key:
HCT-116 [1] = assay: Anti-proliferative activity against human HCT-116 cells incubated for 72 hrs by MTT assay; assay type: functional, cell-based; details: HCT-116, 72 h
HCT-116 [2] = assay: Inhibition of colony formation in human HCT-116 cells incubated for 7 to 12 days by crystal violet staining based analysis; assay type: functional, cell-based; details: dose <= 3.0 µM, time 7-12 day
[3] = Selectivity index, ratio of IC50 for human L02 cells to IC50 for human Bel-7402 cells; assay type: toxicity; details: L02 cells versus Bel-7402 cells, read-out: Ratio IC50
[4] = Selectivity index, ratio of IC50 for human L02 cells to IC50 for human HCT-116 cells; assay type: toxicity; details: L02 cells versus HCT-116 cells, read-out: Ratio IC50
HCT-116 [5] = assay: Inhibition of cell proliferation in human HCT-116 cells incubated for 12 hrs by EdU assay; assay type: functional, cell-based; details: dose <= 3.0 µM
HCT-116 [6] = assay: Inhibition of colony formation in human HCT-116 cells at 3 uM incubated for 7 to 12 days by crystal violet staining based analysis relative to control; assay type: functional; details: time 7-12 day
HCT-116 [7] = assay: Anti-proliferative activity against human HCT-116 cells assessed as inhibition of STAT3 phosphorylation upto 3 uM incubated for 72 hrs by Western blot analysis; assay type: functional, cell-based
HCT-116 [8] = assay: Induction of ferroptosis in human HCT-116 cells incubated for 72 hrs in presence of Fer-1 by MTT assay; assay type: functional, cell-based
HCT-116 [9] = assay: Induction of oxidative stress in human HCT-116 cells assessed as increase in MDA level incubated for 24 hrs; assay type: functional, cell-based; details: dose <= 3.0 µM
HCT-116 [10] = assay: Induction of ferroptosis in human HCT-116 cells assessed as reduction in GPX4 level upto 3 uM incubated for 72 hrs by Western blot analysis; assay type: functional, cell-based
HCT-116 [11] = assay: Induction of intracellular ROS level in human HCT-116 cells upto 3 uM incubated for 24 hrs by DCFH-DA dye based analysis; assay type: functional, cell-based
HCT-116 [12] = assay: Induction of lipid peroxidation in human HCT-116 cells upto 3 uM incubated for 24 hrs by confocal fluorescence microscopy; assay type: functional, cell-based
HCT-116 [13] = assay: Induction of apoptosis in human HCT-116 cells assessed as viable cells at 0.03 uM incubated for 72 hrs by Annexin V-FITC/PI staining based flow cytometry (reference value: 97.1 %); assay type: functional; details: read-out: Activity
HCT-116 [14] = assay: Induction of apoptosis in human HCT-116 cells assessed as viable cells at 0.3 uM incubated for 72 hrs by Annexin V-FITC/PI staining based flow cytometry (reference value: 97.1 %); assay type: functional; details: read-out: Activity
HCT-116 [15] = assay: Induction of apoptosis in human HCT-116 cells assessed as early apoptotic cells at 0.3 uM incubated for 72 hrs by Annexin V-FITC/PI staining based flow cytometry (reference value: 1.55 %); assay type: functional
HCT-116 [16] = assay: Induction of apoptosis in human HCT-116 cells assessed as late apoptotic cells at 0.3 uM incubated for 72 hrs by Annexin V-FITC/PI staining based flow cytometry (reference value: 0.98 %); assay type: functional
HCT-116 [17] = assay: Induction of apoptosis in human HCT-116 cells assessed as viable cells at 3 uM incubated for 72 hrs by Annexin V-FITC/PI staining based flow cytometry (reference value: 97.1 %); assay type: functional; details: read-out: Activity
HCT-116 [18] = assay: Induction of apoptosis in human HCT-116 cells assessed as necrotic cells at 3 uM incubated for 72 hrs by Annexin V-FITC/PI staining based flow cytometry (reference value: 0.33 %); assay type: functional
HCT-116 [19] = assay: Induction of apoptosis in human HCT-116 cells in presence of Z-VAD-FMK; assay type: functional, cell-based
HCT-116 [20] = assay: Induction of mitochondrial membrane potential loss in human HCT-116 cells assessed as increase in green fluorescence incubated upto 3 uM by JC-1 dye based analysis; assay type: functional, cell-based
HCT-116 [21] = assay: Induction of apoptosis in human HCT-116 cells assessed as increase in Bax level upto 3 uM incubated for 72 hrs by Western blot analysis; assay type: functional, cell-based
HCT-116 [22] = assay: Induction of apoptosis in human HCT-116 cells assessed as decrease in Bcl-2 level upto 3 uM incubated for 72 hrs by Western blot analysis; assay type: functional, cell-based
HCT-116 [23] = assay: Induction of apoptosis in human HCT-116 cells assessed as increase in JNK level upto 3 uM incubated for 72 hrs by Western blot analysis; assay type: functional, cell-based
HCT-116 [24] = assay: Induction of apoptosis in human HCT-116 cells assessed as increase in p38 level upto 3 uM incubated for 72 hrs by Western blot analysis; assay type: functional, cell-based
HCT-116 [25] = assay: Induction of cell cycle arrest in human HCT-116 cells assessed as accumulation at G0/G1 phase at 0.03 uM incubated for 72 hrs by PI staining based flow cytometry (reference value: 80.71 %); assay type: functional
HCT-116 [26] = assay: Induction of cell cycle arrest in human HCT-116 cells assessed as accumulation at G0/G1 phase at 0.3 uM incubated for 72 hrs by PI staining based flow cytometry (reference value: 80.71 %); assay type: functional
HCT-116 [27] = assay: Induction of cell cycle arrest in human HCT-116 cells assessed as accumulation at G0/G1 phase at 3 uM incubated for 72 hrs by PI staining based flow cytometry (reference value: 80.71 %); assay type: functional
HCT-116 [28] = assay: Induction of cell cycle arrest in human HCT-116 cells assessed as accumulation at S phase at 3 uM incubated for 72 hrs by PI staining based flow cytometry (reference value: 23.49 %); assay type: functional
HCT-116 [29] = assay: Induction of cell cycle arrest in human HCT-116 cells assessed as accumulation at G2/M phase at 0.3 uM incubated for 72 hrs by PI staining based flow cytometry (reference value: 15.79 %); assay type: functional
[30] = Toxicity in BALB/c mouse assessed as animal death at 100 mg/kg, ip administered continuously for 7 days; assay type: organism-based; details: in vivo, 168 h, time 7 day
[31] = Toxicity in BALB/c mouse assessed as apparent damage in heart at 100 mg/kg, ip administered continuously for 7 days by H and E staining based analysis; assay type: organism-based; details: in vivo, 168 h, time 7 day
[32] = Toxicity in BALB/c mouse assessed as apparent damage in liver at 100 mg/kg, ip administered continuously for 7 days by H and E staining based analysis; assay type: organism-based; details: in vivo, 168 h, time 7 day
[33] = Toxicity in BALB/c mouse assessed as apparent damage in lungs at 100 mg/kg, ip administered continuously for 7 days by H and E staining based analysis; assay type: organism-based; details: in vivo, 168 h, time 7 day
[34] = Toxicity in BALB/c mouse assessed as apparent damage in kidney at 100 mg/kg, ip administered continuously for 7 days by H and E staining based analysis; assay type: organism-based; details: in vivo, 168 h, time 7 day
[35] = Toxicity in BALB/c mouse assessed as toxic effect upto 100 mg/kg, ip administered continuously for 7 days; assay type: organism-based; details: in vivo, 168 h, time 7 day
[36] = Toxicity in BALB/c mouse assessed as lethal dose administered intraperitoneally continuously for 7 days; details: in vivo, route ip, time 7 day
HCT-116 [37] = assay: Antitumor activity against human HCT-116 cells xenografted in mouse at 50 mg/kg, ip administered once in every 2 days for 21 days relative to control; assay type: functional; details: HCT-116, 504 h, time 21 day, read-out: TGI
HCT-116 [38] = assay: Antitumor activity against human HCT-116 cells xenografted in mouse assessed as reduction in tumor cell mitotic figures at 50 mg/kg, ip administered once in every 2 days for 21 days by H and E staining based analysis; assay type: functional, organism-based; details: time 21.0 day

Structure (SMILES): C[C@@H]1CC[C@H]2[C@@H](C)C(OC(=O)Nc3ccc(Cl)cc3)O[C@@H]3O[C@@]4(C)CC[C@H]1[C@]32OO4 (stereo partly drawn)
- IC50 (HCT-116 [1]): 310 nM
- inhibition (HCT-116 [2]): Dose-dependent-effect
- selectivity ratio [3]: 2
- selectivity ratio [4]: 54.1
- inhibition (HCT-116 [5]): Dose-dependent-effect
- inhibition at 3 µM (HCT-116 [6]): 62.1%
- inhibition (HCT-116 [7]): Active
- Activity (HCT-116 [8]): inactive
- Activity (HCT-116 [9]): Dose-dependent-effect
- Activity (HCT-116 [10]): Active
- Activity (HCT-116 [11]): Active
- Activity (HCT-116 [12]): Active
- viability at 0.03 µM (HCT-116 [13]): 93.3%
- viability at 0.3 µM (HCT-116 [14]): 81.9%
- Activity (HCT-116 [15]): 9.8%
- Activity (HCT-116 [16]): 8.21%
- viability at 3 µM (HCT-116 [17]): 56.7%
- Activity (HCT-116 [18]): 0.026%
- Activity (HCT-116 [19]): inactive
- Activity (HCT-116 [20]): Active
- Activity (HCT-116 [21]): Active
- Activity (HCT-116 [22]): Active
- Activity (HCT-116 [23]): Active
- Activity (HCT-116 [24]): Active
- Activity (HCT-116 [25]): 49.21%
- Activity (HCT-116 [26]): 37.62%
- Activity (HCT-116 [27]): 42.97%
- Activity (HCT-116 [28]): 23.71%
- Activity (HCT-116 [29]): 37.8%
- Activity [30]: Non-toxic
- Activity [31]: Non-toxic
- Activity [32]: Non-toxic
- Activity [33]: Non-toxic
- Activity [34]: Non-toxic
- Activity [35]: Non-toxic
- LD50 at 168 h [36]: > 100 mg/kg
- inhibition in vivo at 50 mg/kg (HCT-116 [37]): ≤ 58.7%
- Activity (HCT-116 [38]): Active
